Results published in ChEMBL document CHEMBL1144811, “Design and synthesis of morpholine derivatives. SAR for dual serotonin & noradrenaline reuptake inhibition” (Bioorg Med Chem Lett, 2008).
Calls of active or inactive are those of the source. The calls are words filed in the database; no cut-off is given here.

Assays:
[1] = molecular target: Sodium-dependent noradrenaline transporter (Homo sapiens, UniProt P23975); experiment: biochemical
Description: Inhibition of [3H]nisoxetine reuptake at human NET expressed in HEK293 cells

[2] = molecular target: Sodium-dependent serotonin transporter (Homo sapiens, UniProt P31645); experiment: biochemical
Chain of Sodium-dependent serotonin transporter (Homo sapiens, UniProt P31645) (P31645 whole entry): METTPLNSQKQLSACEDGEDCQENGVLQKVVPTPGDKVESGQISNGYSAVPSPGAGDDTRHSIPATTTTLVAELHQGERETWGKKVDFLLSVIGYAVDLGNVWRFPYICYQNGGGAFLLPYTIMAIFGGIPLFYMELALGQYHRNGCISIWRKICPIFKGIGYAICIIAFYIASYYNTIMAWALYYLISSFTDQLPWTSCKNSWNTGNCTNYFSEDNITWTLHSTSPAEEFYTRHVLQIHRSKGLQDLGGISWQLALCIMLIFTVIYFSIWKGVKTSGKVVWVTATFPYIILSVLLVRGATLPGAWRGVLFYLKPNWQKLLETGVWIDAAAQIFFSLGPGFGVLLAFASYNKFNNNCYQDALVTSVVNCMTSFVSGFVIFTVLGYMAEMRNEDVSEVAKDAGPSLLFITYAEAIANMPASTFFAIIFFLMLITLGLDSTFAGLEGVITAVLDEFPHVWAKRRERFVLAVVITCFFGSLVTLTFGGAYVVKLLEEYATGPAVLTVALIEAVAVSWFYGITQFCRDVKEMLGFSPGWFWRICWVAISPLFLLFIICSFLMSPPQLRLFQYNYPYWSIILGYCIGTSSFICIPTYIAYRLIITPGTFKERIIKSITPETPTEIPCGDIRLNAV
Description: Inhibition of [3H]citalopram uptake at human 5HTT expressed in HEK293 cells

[3] = molecular target: T1, Sodium-dependent dopamine transporter (Homo sapiens, UniProt Q01959)
T1 sequence (Q01959 whole entry): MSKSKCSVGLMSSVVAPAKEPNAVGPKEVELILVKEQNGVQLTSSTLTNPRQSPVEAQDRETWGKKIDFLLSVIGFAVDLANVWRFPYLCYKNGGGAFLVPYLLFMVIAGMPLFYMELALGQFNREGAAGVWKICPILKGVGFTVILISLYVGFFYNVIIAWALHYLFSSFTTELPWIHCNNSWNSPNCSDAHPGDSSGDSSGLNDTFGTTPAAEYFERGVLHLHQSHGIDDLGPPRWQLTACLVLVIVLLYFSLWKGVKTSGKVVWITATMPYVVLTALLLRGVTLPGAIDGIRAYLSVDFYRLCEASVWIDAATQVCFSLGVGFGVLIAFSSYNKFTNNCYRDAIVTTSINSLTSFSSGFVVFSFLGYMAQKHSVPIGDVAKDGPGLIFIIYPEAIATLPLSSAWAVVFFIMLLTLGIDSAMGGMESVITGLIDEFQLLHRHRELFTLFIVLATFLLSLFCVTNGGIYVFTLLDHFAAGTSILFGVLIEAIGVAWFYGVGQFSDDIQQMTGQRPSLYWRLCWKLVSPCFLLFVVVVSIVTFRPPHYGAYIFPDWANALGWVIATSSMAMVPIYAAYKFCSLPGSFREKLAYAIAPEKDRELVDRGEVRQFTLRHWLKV
Description: (§1) Inhibition of [3H]dopamine reuptake at human DAT expressed in HEK293 cells

[4] = molecular target: T2, Histamine H1 receptor (Homo sapiens, UniProt P35367)
T2 sequence (P35367 whole entry): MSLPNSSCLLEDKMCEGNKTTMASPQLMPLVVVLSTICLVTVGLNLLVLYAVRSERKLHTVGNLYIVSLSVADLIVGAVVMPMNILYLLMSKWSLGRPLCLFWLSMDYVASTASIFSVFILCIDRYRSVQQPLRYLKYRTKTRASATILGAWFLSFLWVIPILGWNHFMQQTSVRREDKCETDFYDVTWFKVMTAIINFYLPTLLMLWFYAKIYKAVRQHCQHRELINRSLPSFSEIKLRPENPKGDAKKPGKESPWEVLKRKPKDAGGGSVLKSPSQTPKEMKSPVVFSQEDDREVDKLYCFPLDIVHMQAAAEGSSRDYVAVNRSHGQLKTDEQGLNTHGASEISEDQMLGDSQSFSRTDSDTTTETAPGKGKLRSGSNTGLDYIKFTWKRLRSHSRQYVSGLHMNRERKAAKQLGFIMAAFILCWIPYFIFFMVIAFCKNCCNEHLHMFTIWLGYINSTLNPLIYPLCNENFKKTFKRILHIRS

[5] = pKa, dissociation constant of the compound; type: physicochemical
[6] = Partition coefficient, log D at pH 7.4; type: physicochemical; settings: octanol/water
[7] = molecular target: T2, Histamine H1 receptor; experiment: Inhibition of histamine H1 receptor
[8] = molecular target: T1, Sodium-dependent dopamine transporter; settings: hek293
Description: as §1

[9] = molecular target: T2, Histamine H1 receptor; experiment: Inhibition of histamine H1 receptor at 10 uM
[10] = molecular target: Cytochrome P450 2C9 (Homo sapiens, UniProt P11712); experiment: Inhibition of CYP2C9; type: ADME
Chain of Cytochrome P450 2C9 (P11712 whole entry): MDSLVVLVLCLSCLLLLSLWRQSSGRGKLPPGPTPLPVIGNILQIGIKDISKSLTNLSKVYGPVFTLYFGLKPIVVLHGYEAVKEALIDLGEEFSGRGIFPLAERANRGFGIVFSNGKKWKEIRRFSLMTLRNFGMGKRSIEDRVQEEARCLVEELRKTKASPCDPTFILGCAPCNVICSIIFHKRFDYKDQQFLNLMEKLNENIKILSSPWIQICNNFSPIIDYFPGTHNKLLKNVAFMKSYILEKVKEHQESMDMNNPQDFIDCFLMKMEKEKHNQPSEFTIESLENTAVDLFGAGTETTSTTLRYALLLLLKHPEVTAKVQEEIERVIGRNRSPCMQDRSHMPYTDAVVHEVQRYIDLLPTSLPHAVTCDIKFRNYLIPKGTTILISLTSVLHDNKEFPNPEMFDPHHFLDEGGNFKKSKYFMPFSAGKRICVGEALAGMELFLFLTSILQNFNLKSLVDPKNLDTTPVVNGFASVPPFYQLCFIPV

[11] = molecular target: Cytochrome P450 2D6 (Homo sapiens, UniProt P10635); experiment: Inhibition of CYP2D6; type: ADME
Chain of Cytochrome P450 2D6 (P10635 whole entry): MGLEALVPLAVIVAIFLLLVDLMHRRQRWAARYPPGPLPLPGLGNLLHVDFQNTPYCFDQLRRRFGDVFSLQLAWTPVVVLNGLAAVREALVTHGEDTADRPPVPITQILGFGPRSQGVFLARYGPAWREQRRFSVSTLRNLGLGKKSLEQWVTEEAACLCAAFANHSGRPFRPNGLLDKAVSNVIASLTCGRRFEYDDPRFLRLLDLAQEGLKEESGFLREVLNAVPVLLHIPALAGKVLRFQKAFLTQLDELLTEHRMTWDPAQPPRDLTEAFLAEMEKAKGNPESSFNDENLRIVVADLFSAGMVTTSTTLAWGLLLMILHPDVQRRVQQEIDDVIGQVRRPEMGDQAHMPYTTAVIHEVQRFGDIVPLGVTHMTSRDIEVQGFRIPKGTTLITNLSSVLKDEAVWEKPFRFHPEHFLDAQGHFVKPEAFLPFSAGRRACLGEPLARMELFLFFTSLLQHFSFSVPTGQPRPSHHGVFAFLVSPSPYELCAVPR

[12] = Inhibition of calcium channel L type at diltiazem site
[13] = molecular target: Voltage-gated inwardly rectifying potassium channel KCNH2 (Homo sapiens, UniProt Q12809); experiment: Displacement of [3H]dofetilide from human ERG
[14] = test system: Rattus norvegicus; experiment: Increase in noradrenaline level in prefrontal cortex interstitial fluid of rat at 10 mg/kg, sc; type: functional; settings: route subcutaneous
[15] = test system: MDCK; experiment: Permeability from apical to basolateral side of P-gp expressing MDCK cell membrane at 10 uM; type: ADME, cell-based, Canis lupus familiaris; settings: dog
[16] = test system: Rattus norvegicus; experiment: Increase in 5-hydroxytryptamine level in prefrontal cortex interstitial fluid of rat at 10 mg/kg, sc; type: functional; settings: route subcutaneous
[17] = test system: MDCK; experiment: Permeability from basolateral to apical side of P-gp expressing MDCK cell membrane at 10 uM; type: ADME, cell-based, Canis lupus familiaris; settings: dog
[18] = molecular target: T3, Cytochrome P450 1A2 (Homo sapiens, UniProt P05177); experiment: Inhibition of CYP1A2; type: ADME
T3 sequence (P05177 whole entry): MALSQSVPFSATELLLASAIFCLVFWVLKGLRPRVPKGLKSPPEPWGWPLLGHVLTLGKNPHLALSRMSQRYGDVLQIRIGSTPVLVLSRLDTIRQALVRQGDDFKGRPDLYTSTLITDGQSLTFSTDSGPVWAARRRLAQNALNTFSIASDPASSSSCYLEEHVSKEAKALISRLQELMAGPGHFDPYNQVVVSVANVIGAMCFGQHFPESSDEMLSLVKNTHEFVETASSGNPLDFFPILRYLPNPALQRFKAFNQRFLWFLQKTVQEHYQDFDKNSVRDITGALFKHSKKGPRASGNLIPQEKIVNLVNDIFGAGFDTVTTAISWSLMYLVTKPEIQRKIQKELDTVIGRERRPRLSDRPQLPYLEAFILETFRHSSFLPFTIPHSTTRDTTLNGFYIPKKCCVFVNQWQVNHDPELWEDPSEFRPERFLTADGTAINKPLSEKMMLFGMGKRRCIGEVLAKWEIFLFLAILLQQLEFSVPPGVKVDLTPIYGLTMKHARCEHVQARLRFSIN

[19] = molecular target: Cytochrome P450 3A4 (Homo sapiens, UniProt P08684); experiment: Inhibition of CYP3A4; type: ADME
Chain of Cytochrome P450 3A4 (P08684 whole entry): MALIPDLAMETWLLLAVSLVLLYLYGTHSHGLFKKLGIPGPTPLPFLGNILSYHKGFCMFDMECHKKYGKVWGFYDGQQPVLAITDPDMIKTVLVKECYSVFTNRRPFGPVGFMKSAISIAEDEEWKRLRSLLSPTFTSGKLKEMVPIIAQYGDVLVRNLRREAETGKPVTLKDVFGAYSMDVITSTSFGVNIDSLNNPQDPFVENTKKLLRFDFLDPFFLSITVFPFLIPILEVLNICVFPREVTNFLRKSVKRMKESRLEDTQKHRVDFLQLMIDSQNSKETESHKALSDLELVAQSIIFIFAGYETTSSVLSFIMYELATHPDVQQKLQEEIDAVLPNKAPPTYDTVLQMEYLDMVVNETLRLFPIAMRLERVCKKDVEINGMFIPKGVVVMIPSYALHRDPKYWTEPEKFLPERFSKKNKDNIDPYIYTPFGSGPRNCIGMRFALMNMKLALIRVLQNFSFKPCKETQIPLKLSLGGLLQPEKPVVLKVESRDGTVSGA

[20] = Metabolic stability in human liver microsomes; type: ADME, Microsome
[21] = Inhibition of sodium channel site 2
[22] = Metabolic stability in human hepatocytes; type: ADME, cell-based, Liver, Hepatocyte
[23] = test system: Caco-2; experiment: Permeability from basolateral to apical side of human Caco-2 cell membrane at 10 uM; type: ADME, cell-based; settings: caco-2, 10 µM
[24] = molecular target: Norepinephrine transporter (Rattus norvegicus, UniProt Q9WTR4); experiment: Inhibition of rat NET expressed in HEK293 cells; type: cell-based
Chain of Norepinephrine transporter (Q9WTR4 whole entry): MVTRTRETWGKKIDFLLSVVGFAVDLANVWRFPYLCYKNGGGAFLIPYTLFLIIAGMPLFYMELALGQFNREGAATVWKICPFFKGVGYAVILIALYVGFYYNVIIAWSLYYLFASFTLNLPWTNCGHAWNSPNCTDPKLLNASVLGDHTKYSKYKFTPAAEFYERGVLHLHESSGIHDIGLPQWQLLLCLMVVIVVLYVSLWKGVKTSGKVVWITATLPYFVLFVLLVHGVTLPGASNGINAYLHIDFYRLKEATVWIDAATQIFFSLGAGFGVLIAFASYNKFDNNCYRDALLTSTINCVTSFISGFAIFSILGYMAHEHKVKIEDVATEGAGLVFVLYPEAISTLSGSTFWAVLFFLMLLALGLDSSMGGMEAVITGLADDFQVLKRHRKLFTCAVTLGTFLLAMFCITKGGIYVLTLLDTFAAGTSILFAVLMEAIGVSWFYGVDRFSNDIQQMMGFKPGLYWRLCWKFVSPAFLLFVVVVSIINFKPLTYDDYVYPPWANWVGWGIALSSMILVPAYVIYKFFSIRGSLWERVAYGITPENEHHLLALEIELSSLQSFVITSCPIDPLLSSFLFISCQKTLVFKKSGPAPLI

[25] = molecular target: Cytochrome P450 2C19 (Homo sapiens, UniProt P33261); experiment: Inhibition of CYP2C19; type: ADME
Chain of Cytochrome P450 2C19 (P33261 whole entry): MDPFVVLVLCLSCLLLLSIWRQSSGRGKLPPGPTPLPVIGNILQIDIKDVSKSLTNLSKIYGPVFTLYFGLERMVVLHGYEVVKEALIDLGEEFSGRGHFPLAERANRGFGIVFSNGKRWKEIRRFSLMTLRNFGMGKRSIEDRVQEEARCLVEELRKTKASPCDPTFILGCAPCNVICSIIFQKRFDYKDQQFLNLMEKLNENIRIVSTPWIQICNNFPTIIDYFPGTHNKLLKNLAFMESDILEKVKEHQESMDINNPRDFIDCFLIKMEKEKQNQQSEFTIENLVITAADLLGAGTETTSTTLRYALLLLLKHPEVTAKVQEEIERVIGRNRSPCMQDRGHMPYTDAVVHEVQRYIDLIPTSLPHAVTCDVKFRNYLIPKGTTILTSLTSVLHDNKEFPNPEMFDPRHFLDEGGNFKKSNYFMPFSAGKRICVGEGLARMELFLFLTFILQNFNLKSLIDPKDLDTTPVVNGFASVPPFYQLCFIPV

[26] = test system: Caco-2; experiment: Permeability from apical to basolateral side of human Caco-2 cell membrane at 10 uM; type: ADME, cell-based; settings: caco-2, 10 µM
[27] = molecular target: Sodium-dependent serotonin transporter (Rattus norvegicus, UniProt P31652); experiment: Inhibition of rat 5HTT expressed in HEK293 cells; type: cell-based

Chain of Sodium-dependent noradrenaline transporter (P23975 whole entry): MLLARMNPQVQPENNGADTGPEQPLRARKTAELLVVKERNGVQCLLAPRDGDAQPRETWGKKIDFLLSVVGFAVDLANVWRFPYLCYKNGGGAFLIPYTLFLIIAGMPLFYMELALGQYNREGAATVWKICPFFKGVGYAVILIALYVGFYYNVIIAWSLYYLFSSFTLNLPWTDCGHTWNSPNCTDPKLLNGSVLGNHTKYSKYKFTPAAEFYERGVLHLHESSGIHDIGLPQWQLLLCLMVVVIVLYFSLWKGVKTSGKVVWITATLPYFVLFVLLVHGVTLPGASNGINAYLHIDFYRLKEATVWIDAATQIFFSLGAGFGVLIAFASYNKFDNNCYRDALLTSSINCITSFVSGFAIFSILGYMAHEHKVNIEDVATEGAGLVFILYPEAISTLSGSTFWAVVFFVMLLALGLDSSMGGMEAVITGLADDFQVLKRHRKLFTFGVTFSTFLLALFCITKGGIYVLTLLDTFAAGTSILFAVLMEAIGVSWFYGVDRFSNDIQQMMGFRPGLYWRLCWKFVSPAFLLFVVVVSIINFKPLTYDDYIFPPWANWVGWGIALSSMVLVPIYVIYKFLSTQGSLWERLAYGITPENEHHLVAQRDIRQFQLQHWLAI

For COc1cc(C#N)ccc1O[C@@H](c1ccccc1)[C@@H]1CNCCO1, the Ki [1] was 210 nM and the Ki [2] was 110 nM.
COc1cc(Cl)ccc1O[C@@H](c1cccc(C)c1)[C@@H]1CNCCO1 gave a Ki [1] of 16 nM and a Ki [2] of 69 nM.
Work on Fc1ccc(O[C@H](c2ccccc2)[C@H]2CNCCO2)c(Cl)c1 yielded a Ki [3] of 760 nM and a Ki [4] of 10 nM.
For COc1cc(Cl)ccc1OC(c1ccccc1)C1CNCCO1 (racemic; syn), the Ki [3] was 5050 nM, the pKa [5] was 7.7 and the logD [6] was 1.9.
With COc1cc(Cl)ccc1OC(c1ccccc1)C1CNCCO1 (racemic; anti) the Ki [3] was 2200 nM.
In the case of COc1cc(Cl)ccc1O[C@@H](c1cccc(F)c1)[C@@H]1CNCCO1, the Ki [3] is reported as 10800 nM, the Ki [1] is reported as 9 nM and the Ki [2] is reported as 58 nM.
COc1cc(Br)ccc1O[C@@H](c1ccccc1)[C@@H]1CNCCO1 showed a Ki [2] of 30 nM.
Fc1cccc(O[C@@H](c2ccccc2)[C@@H]2CNCCO2)c1F gave a Ki [3] of 2600 nM, a Ki [1] of 10 nM and a Ki [2] of 3390 nM. The Activity [7] was “inactive”.
Compound c1ccc([C@@H](Oc2cccc3c2OCC3)[C@H]2CNCCO2)cc1 has a Ki [3] of 5750 nM, a Ki [4] of 10 nM and a Ki [1] of 350 nM. It also gave a Ki [2] of 20 nM.
With COc1cc(C(F)(F)F)ccc1O[C@@H](c1ccccc1)[C@@H]1CNCCO1 the Ki [1] was 160 nM and the Ki [2] was 41 nM.
Work on Fc1cccc(O[C@H](c2ccccc2)[C@H]2CNCCO2)c1F yielded a Ki [3] of 380 nM, a Ki [4] of 10 nM and a Ki [1] of 130 nM. It also gave a Ki [2] of 12 nM.
With COc1cc(Cl)ccc1O[C@H](c1ccccc1)[C@H]1CNCCO1 the Ki [3] was 1790 nM and the Ki [4] was 26 nM.
CCOc1c(Cl)cccc1OC(c1ccccc1)C1CNCCO1 (racemic; syn) gave a Ki [8] of over 10000 nM, a Ki [1] of 275 nM and a Ki [2] of 240 nM.
Work on COc1ccc(O[C@@H](c2ccccc2)[C@@H]2CNCCO2)c(Cl)c1 yielded a Ki [3] of 1090 nM, a Ki [1] of 28 nM and a Ki [2] of 96 nM.
For Cc1cc(F)ccc1O[C@H](c1ccccc1)[C@H]1CNCCO1, the Ki [3] was 950 nM, the Ki [4] was 10 nM and the Ki [1] was 860 nM. For the same compound, the Ki [2] was 34 nM.
Compound COc1cc(Cl)ccc1O[C@@H](c1ccc(C)cc1)[C@@H]1CNCCO1 has a Ki [3] of 1650 nM, a Ki [1] of 180 nM and a Ki [2] of 88 nM.
COc1cc(Cl)ccc1O[C@@H](c1ccccc1F)[C@@H]1CNCCO1 gave a Ki [1] of 22 nM and a Ki [2] of 70 nM.
Compound COc1cc(F)ccc1O[C@@H](c1ccccc1)[C@@H]1CNCCO1 has a Ki [3] of 3080 nM, a Ki [1] of 6 nM and a Ki [2] of 740 nM. For the same compound, the Activity [7] was “inactive”.
Work on Clc1cccc(O[C@@H](c2ccccc2)[C@@H]2CNCCO2)c1Cl yielded a Ki [3] of 420 nM, a Ki [1] of 17 nM and a Ki [2] of 100 nM.
With COc1cc(Cl)ccc1O[C@@H](c1ccccc1)[C@@H]1CNCCO1 the inhibition [9] was under 20%, the IC50 [10] was over 29000 nM and the IC50 [11] was over 29000 nM. The Ki [3] was 1570 nM, the Ki [12] was 2000 nM and the Ki [13] was 3300 nM. For the same compound, the Activity [14] was 170%, the Papp [15] was 22 10^-6/cm and the Activity [16] was 160%. The Papp [17] was 35 10^-6/cm, the IC50 [18] was over 29000 nM and the IC50 [19] was over 29000 nM. It also gave a half-life [20] of over 2 h, a Ki [21] of 1200 nM and a half-life [22] of 3.1 h. The Papp [23] was 16 10^-6/cm, the Ki [24] was 6 nM and the IC50 [25] was over 29000 nM. The Papp [26] was 18 10^-6/cm and the Ki [27] was 59 nM.
In the case of CCOc1c(Cl)cccc1OC(c1ccccc1)C1CNCCO1 (racemic; anti), the Ki [3] is reported as over 10000 nM, the Ki [1] is reported as 1490 nM and the Ki [2] is reported as 340 nM.
In the case of CCOc1cc(Cl)ccc1OC(c1ccccc1)C1CNCCO1 (racemic; syn), the Ki [3] is reported as 1540 nM, the Ki [1] is reported as 15 nM and the Ki [2] is reported as 60 nM.
With COc1cc(Cl)ccc1O[C@@H](c1ccc(F)cc1)[C@@H]1CNCCO1 the Ki [1] was 29 nM and the Ki [2] was 62 nM.
CCOc1cc(Cl)ccc1OC(c1ccccc1)C1CNCCO1 (racemic; anti) gave a Ki [3] of 1670 nM, a Ki [1] of 390 nM and a Ki [2] of 220 nM.
In the case of Fc1ccc(O[C@@H](c2ccccc2)[C@@H]2CNCCO2)c(Cl)c1, the Ki [3] is reported as 1170 nM and the Activity [7] is reported as “inactive”.
COc1cc(Cl)ccc1O[C@@H](c1ccccc1C)[C@@H]1CNCCO1 gave a Ki [1] of 84 nM and a Ki [2] of 70 nM.
In the case of Cc1cc(F)ccc1O[C@@H](c1ccccc1)[C@@H]1CNCCO1, the Ki [3] is reported as 1250 nM, the Ki [1] is reported as 18 nM and the Ki [2] is reported as 185 nM. For the same compound, the Activity [7] was “inactive”.
With c1ccc([C@H](Oc2cccc3c2OCC3)[C@@H]2CNCCO2)cc1 the Ki [1] was 12 nM, the Ki [2] was 1800 nM and the Activity [7] was “inactive”.
COc1cc(F)ccc1O[C@H](c1ccccc1)[C@H]1CNCCO1 showed a Ki [4] of 10 nM, a Ki [1] of 610 nM and a Ki [2] of 22 nM.
